Where “and” joins values, the source holds several entries; their conditions need not be identical. Identical values can stand only once.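 Five compound concentrations were applied to cells in 96-well plates for 48 hours; endpoints were derived by simple linear interpolation of the resulting dose-response curve. Here, GI50 denotes the concentration required for 50% inhibition of growth. At the TGI there is no net growth.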
Tests used:
Experiment in all cases: NCI tumour cell line growth inhibition, 48 h
[1] = system: K-562 leukemia
[2] = system: OVCAR-3 ovarian
[3] = system: RPMI-8226 leukemia
[4] = system: SK-OV-3 ovarian
[5] = system: SNB-19 CNS
[6] = system: T-47D breast
[7] = system: U251 CNS
[8] = system: UACC-257 melanoma
[9] = system: UO-31 renal
[10] = system: MDA-MB-435
[11] = system: NCI-H522 lung

| SMILES | TGI [1] [µM] | TGI [2] [µM] | TGI [3] [µM] | TGI [4] [µM] | TGI [5] [µM] | TGI [6] [µM] | TGI [7] | TGI [8] [µM] | TGI [9] [µM] | TGI [10] [µM] | TGI [11] [µM] | GI50 [1] [µM] | GI50 [3] [µM] | GI50 [7] | GI50 [8] [µM] |
| --- | --- | --- | --- | --- | --- | --- | --- | --- | --- | --- | --- | --- | --- | --- | --- |
| CCCCOC(=O)C1CN2C(=NC1(C(F)(F)F)C(F)(F)F)Sc1ccccc12 (configuration not stated) | > 100 | > 100 | > 100 | > 100 | > 100 | > 100 | > 100 µM | > 100 | > 100 |  |  |  |  |  |  |
| COC(=O)c1scc(N)c1-n1ccc(=O)[nH]c1=O | > 100 |  | > 100 |  | > 100 | > 100 | > 100 µM | > 100 | > 100 | > 100 | > 100 |  |  |  |  |
| CC(C)(C)NC1C2CCC(C)(C1O)C2(C)C (configuration not stated) | > 100 | > 100 | > 100 | > 100 | > 100 | > 100 | > 100 µM | > 100 | > 100 | > 100 |  |  |  |  |  |
| CCOC(=O)C1(Cc2ccccc2)Cc2ccccc2C1=O (configuration not stated) | > 100 | > 100 | 60.8 | > 100 |  | 88.3 | > 100 µM |  | 57.3 | 45.3 |  |  |  |  |  |
| COc1cc(/C=C(\C#N)c2ccccn2)cc(Br)c1O | > 100 | > 100 | > 100 | > 100 | > 100 |  | > 100 µM | > 100 | > 100 |  | > 100 |  |  |  |  |
| COc1ccc(-c2nnc(CCCCCCCCc3nnc(-c4ccc(OC)cc4)o3)o2)cc1 | > 100 | > 100 |  | > 100 | > 100 |  | > 100 µM | > 100 | > 100 | > 100 | > 100 |  |  |  |  |
| CC(C)(O)[C@H](CCO)O[Si](c1ccccc1)(c1ccccc1)C(C)(C)C | 23.7 | 23.9 | 49.4 | 24.5 | 19.5 |  | 24.9 µM | 29.7 | 23 |  | 20.1 |  |  |  |  |
| COc1cc(C=O)c(-c2cc3c(cc2C=O)OCO3)c(OC)c1OC | > 290 | 153 | > 290 | > 290 | > 290 |  | > 290 µM | > 290 |  |  | 119 |  |  |  |  |
| CCN(CC)c1nc(N(C)C)c2cc(OC)ccc2n1 | > 100 | > 100 | 61.2 |  | > 100 |  | > 100 µM | 81.3 | > 100 | > 100 | 66.9 |  |  |  |  |
| NC(CCCCNC(=O)C(Cc1ccccc1)NC(=O)OCc1ccccc1)C(=O)NC(CCCCNC(=O)C(Cc1ccccc1)NC(=O)OCc1ccccc1)C(=O)NC(CCCCNC(=O)C(Cc1ccccc1)NC(=O)OCc1ccccc1)C(=O)NC(CCCCNC(=O)C(Cc1ccccc1)NC(=O)OCc1ccccc1)C(=O)NC(CCCCNC(=O)C(Cc1ccccc1)NC(=O)OCc1ccccc1)C(=O)NC(CCCCNC(=O)C(Cc1ccccc1)NC(=O)OCc1ccccc1)C(=O)O (configuration not stated) | > 100 | > 100 | > 100 |  | > 100 | > 100 | > 100 µM | > 100 | > 100 | > 100 | > 100 |  |  |  |  |
| Cc1n[nH]c(=O)n1N1C(=O)c2ccccc2C1=O | > 100 | > 100 |  |  | > 100 | > 100 | > 100 µM | > 100 | > 100 | > 100 |  |  |  |  |  |
| CC1=NN(C(=O)Cc2ccccc2)C(=O)/C1=C\c1ccco1 | > 100 | > 100 | > 100 |  | > 100 |  |  | > 100 | > 100 |  | > 100 |  |  |  |  |
| CN(C(=O)c1cccs1)C(=S)N1CCN(c2ccccc2)CC1 | > 100 | > 100 | > 100 |  | > 100 | > 100 | > 100 µM | > 100 | > 100 | > 100 | > 100 |  |  |  |  |
| COc1cc([C@@H]2c3cc4c(c(O)c3C[C@H]3COC(=O)[C@@H]32)OCO4)cc(OC)c1O | > 50.2 |  | 49.1 |  | > 200 |  | 0.00608 µM and < 0.02 µM | > 20 | > 77.7 |  |  | 0.00312 | 0.0041 | 0.00228 µM and < 0.02 µM | 0.005 |
| CCOC(=O)c1cc(-c2ccc(Cl)cc2)c([N+](=O)[O-])n1C | > 10 | > 10 |  | > 10 | > 10 | 6.45 | > 10 µM | > 10 | > 10 | > 10 | > 10 |  |  |  |  |
| Cc1nc2c(ncn2CCO)c(=O)[nH]1 | > 100 | > 100 |  | > 100 | > 100 | > 100 | > 100 µM | > 100 |  | > 100 | > 100 |  |  |  |  |
| C=C(C(=O)O)[C@@H]1C[C@@H]2O[C@H]1CC(C)=CCC/C(C)=C/CC[C@@]2(C)O | > 100 | > 100 | > 100 |  | > 100 | > 100 | > 100 µM | > 100 | > 100 | > 100 | > 100 |  |  |  |  |
| Cc1cc(NCCCCCCNc2cc(C)nc3ccc(Cl)cc23)c2cc(Cl)ccc2n1 | 18.4 | 32 | > 100 | > 100 | 66.8 |  | 30.6 µM | 44.9 | 62.2 |  | 30.7 |  |  |  |  |
| C[C@]12CCC(=O)C=C1CC[C@@H]1C2CC[C@]2(C)Nc3c(ncn3-c3ccc(F)cc3)CC12 (some centres not stated) | 69 | > 100 |  | > 100 | > 100 | 88.7 | 95.9 µM | 66.2 | > 100 | 42.5 | 55.1 |  |  |  |  |
| CCc1n[nH]c(=O)n1NC(=O)/C=C\C(=O)O | > 100 | > 100 |  | > 100 |  | > 100 | > 100 µM | > 100 |  | > 100 | > 100 |  |  |  |  |
| COC(=O)NN1C(=O)C(=P(c2ccccc2)(c2ccccc2)c2ccccc2)C(C(=O)OC)=C1C | > 100 | > 100 | > 100 | > 100 | > 100 |  | > 100 µM |  | > 100 |  | > 100 |  |  |  |  |
| COc1ccc([C@@H]2CC(=O)NCCCCNCCCN2)cc1 | > 100 |  | > 100 | > 100 | > 100 |  | > 100 µM | > 100 | > 100 |  | > 100 |  |  |  |  |

— PubChem BioAssay (NCI)
